Reference: patent publication US20240279195A1, “SOLID STATE FORMS OF ABEXINOSTAT AND PROCESS FOR PREPARATION THEREOF” (TEVA PHARMACEUTICALS INTERNATIONAL GMBH, priority 2021, published 2024)

Test: solid state stability of the crystalline form upon heating, pressure, grinding and exposure to humidity
Type: physicochemical

Stability of the crystalline form, stable:
Abexinostat fumarate [Form F3]
Abexinostat maleate [Form M1]
Abexinostat tosylate [Form T1]
